Reference: US8008329B2 (Dong Wha Pharmaceutical Co., Ltd., priority 2008, dated 2011)
Marks after values point to notes of the source that are not given here.

Tested on: osteoclast differentiation
Assay: Osteoclast differentiation in co-culture of mouse bone marrow cells and ST2 cells, TRAP staining (Examples 8-9)
Type: cell-based
Details: for % number of osteoclast (vs. solvent control group): day 7; for activity at 0.1 µM: Mus musculus, Osteoclast, 168 h, day 7, read-out: % number of osteoclast (vs. solvent control group)
In short: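 Readout was TRAP-positive multinucleated (≥6 nuclei) cells on day 7, reported as % of 0.1% DMSO control, mean±SD of 4 wells. Cells were mouse (male ddY) bone marrow plus ST2 co-cultures driven by 10^−8 M vitamin D3/dexamethasone. Benzamidines, alendronic acid or risedronic acid were added at 0.1 μM alone or combined, with media renewed days 3 and 5.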

[1] = Combination treatment (alendronic acid + compounds), 0.1 μM each
[2] = Combination treatment (risedronic acid + compounds), 0.1 μM each
[3] = Individual treatment (compounds), 0.1 μM

Compound | % number of osteoclast (vs. solvent control group) [1] | % number of osteoclast (vs. solvent control group) [2] | activity at 0.1 µM [3] | % number of osteoclast (vs. solvent control group) [3]
Cc1nc(-c2ccc(OCCCCCOc3ccc(C(=N)NO)cc3)cc2)c(N2CCOCC2)s1 [Compound 286, N-hydroxy-4-{5-[4-(2-methyl-5-morpholin-4-yl-thiazol-4-yl)-phenoxy]-pentyloxy}-benzamidine] | 29 ± 4.1^b % | 26 ± 1.5^ac % | 43 ± 6.1% | 
CN1CCN(c2sc(N3CCOCC3)nc2-c2ccc(OCCCCCOc3ccc(C(=N)NO)cc3)cc2)CC1 [Compound 289, N-hydroxy-4-(5-{4-[5-(4-methyl-piperazin-1-yl)-2-morpholine-4-yl-thiazol-4-yl]-phenoxy}-pentyloxy)-benzamidine] | 21 ± 7.4^b % | 10 ± 3.1^ac % | 36 ± 9.1% | 
N=C(NO)c1ccc(OCCCCCOc2ccc(-c3nc(N4CCOCC4)sc3N3CCOCC3)cc2)cc1 [Compound 290, N-hydroxy-4-{5-[4-(2,5-di-morpholin-4-yl-thiazol-4-yl)-phenoxy]-pentyloxy}-benzamidine] | 23 ± 4.7^ab % | 12 ± 2.0^ac % | 52 ± 6.2% | 
N=C(NO)c1ccc(OCCCCCOc2ccc(-c3nc(N4CCOCC4)sc3N3CCSCC3)cc2)cc1 [Compound 291, N-hydroxy-4-{5-[4-(2-morpholin-4-yl-5-thiomorpholin-4-yl-thiazol-4-yl)-phenoxy]-pentyloxy}-benzamidine] | 20 ± 3.8^ab % | 12 ± 3.5^ac % | 44 ± 4.9% | 
Cc1nc(-c2ccc(OCCCCCOc3ccc(C(=N)NO)cc3)cc2)c(CN2CCOCC2)s1 [Compound 293, N-hydroxy-4-{5-[4-(2-methyl-5-morpholin-4-ylmethyl-thiazol-4-yl)-phenoxy]-pentyloxy}-benzamidine] | 15 ± 2.6^b % | 11 ± 2.6^c % | 36 ± 10% | 
Cc1nc(-c2ccc(OCCCCCOc3ccc(C(=N)NO)cc3)cc2)c(CN2CCN(C)CC2)s1 [Compound 294, N-hydroxy-4-(5-{4-[2-methyl-5-(4-methyl-piperazin-1-ylmethyl)-thiazol-4-yl]-phenoxy}-pentyloxy)-benzamidine] | 13 ± 2.4^ab % | 9 ± 2.7^ac % | 27 ± 4.5% | 
Cc1nc(-c2ccc(OCCCCCOc3ccc(C(=N)NO)cc3)cc2)c(CN2CCCCC2)s1 [Compound 296, N-hydroxy-4-{5-[4-(2-methyl-5-piperidin-1-ylmethyl-thiazol-4-yl)-phenoxy]-pentyloxy}-benzamidine] | 13 ± 2.6^ab % | 8 ± 1.7^ac % | 46 ± 3.6% | 
CCCCNCc1sc(C)nc1-c1ccc(OCCCCCOc2ccc(C(=N)NO)cc2)cc1 [Compound 298, N-hydroxy-4-{5-[4-(5-butylaminomethyl-2-methyl-thiazol-4-yl)-phenoxy]-pentyloxy}-benzamidine] | 16 ± 3.3^ab % | 8 ± 2.9^ac % | 55 ± 6.1% | 
Cc1nc(-c2ccc(OCCCCCOc3ccc(C(=N)NO)cc3)cc2)c(CNCC(C)C)s1 [Compound 299, N-hydroxy-4-(5-{4-[5-(isobutylamino-methyl)-2-methyl-thiazol-4-yl]-phenoxy}-pentyloxy)-benzamidine] | 14 ± 2.9^ab % | 11 ± 6.0^ac % | 40 ± 6.9% | 
Cc1nc(-c2ccc(OCCCCCOc3ccc(C(=N)NO)cc3)cc2)c(CNC(C)(C)C)s1 [Compound 300, N-hydroxy-4-(5-{4-[5-(tert-butylamino-methyl)-2-methyl-thiazol-4-yl]-phenoxy}-pentyloxy)-benzamidine] | 12 ± 1.7^ab % | 8 ± 5.2^ac % | 48 ± 3% | 
CCCNCc1sc(C)nc1-c1ccc(OCCCCCOc2ccc(C(=N)NO)cc2)cc1 [Compound 301, N-hydroxy-4-{5-[4-(2-methyl-5-propylaminomethyl-thiazol-4-yl)-phenoxy]-pentyloxy}-benzamidine] | 10 ± 2.3^ab % | 6 ± 2.3^ac % | 49 ± 5.1% | 
Cc1nc(-c2ccc(OCCCCCOc3ccc(C(=N)NO)cc3)cc2)c(CNCCN2CCOCC2)s1 [Compound 302, N-hydroxy-4-[5-(4-{2-methyl-5-[(2-morpholin-4-yl-ethylamino)-methyl]-thiazol-4-yl}-phenoxy)-pentyloxy]-benzamidine] | 16 ± 4.5^ab % | 9 ± 2.8^ac % | 59 ± 10.6% | 
Cc1nc(-c2ccc(OCCCCCOc3ccc(C(=N)NO)cc3)cc2)c(CNCCCn2ccnc2)s1 [Compound 303, N-hydroxy-4-[5-(4-{5-[(3-imidazol-1-yl-propylamino)-methyl]-2-methyl-thiazol-4-yl}-phenoxy)-pentyloxy]-benzamidine] | 12 ± 2.5^ab % | 8 ± 2.2^ac % | 53 ± 10.7% | 
Cc1nc(-c2ccc(OCCCCCOc3ccc(C(=N)NO)cc3)cc2)c(CN2CCCC2)s1 [Compound 304, N-hydroxy-4-{5-[4-(2-methyl-5-pyrolidin-1-ylmethyl-thiazol-4-yl)-phenoxy]-pentyloxy}-benzamidine] | 27 ± 6.4^ab % | 16 ± 4.5^ac % |  | 54 ± 6.4%
Cc1nc(-c2ccc(OCCCCCOc3ccc(C(=N)NO)cc3)cc2)c(Cn2ccnc2)s1 [Compound 305, N-hydroxy-4-{5-[4-(5-imidazol-1-ylmethyl-2-methyl-thiazol-4-yl)-phenoxy]-pentyloxy}-benzamidine] | 15 ± 4.8^ab % | 11 ± 4.1^ac % | 58 ± 6.1% | 
Cc1nc(-c2ccc(OCCCCCOc3ccc(C(=N)NO)cc3)cc2)c(CNCc2ccccc2)s1 [Compound 306, N-hydroxy-4-(5-{4-[5-(benzylamino-methyl)-2-methyl-thiazol-4-yl]-phenoxy}-pentyloxy)-benzamidine] | 18 ± 4.3^ab % | 16 ± 3.3^ac % | 48 ± 6.4% | 
Cc1nc(-c2ccc(OCCCCCOc3ccc(C(=N)NO)cc3)cc2)c(CNC2CC2)s1 [Compound 307, N-hydroxy-4-{5-[4-(5-cyclopropylaminomethyl-2-methyl-thiazol-4-yl)-phenoxy]-pentyloxy}-benzamidine] | 30 ± 3.0^b % | 16 ± 4.8^ac % | 43 ± 8.9% | 
CN(Cc1ccncc1)c1nc(-c2ccc(OCCCCCOc3ccc(C(=N)NO)cc3)cc2)c(CN2CCOCC2)s1 [Compound 309, N-hydroxy-4-(5-{4-[2-(methyl-pyridin-4-ylmethyl-amino)-5-morpholin-4-ylmethyl-thiazol-4-yl]-phenoxy}-pentyloxy)-benzamidine] | 13 ± 5.1^ab % | 8 ± 3.0^ac % | 50 ± 6.1% | 
CN(CCO)c1nc(-c2ccc(OCCCCCOc3ccc(C(=N)NO)cc3)cc2)c(CN2CCOCC2)s1 [Compound 310, N-hydroxy-4-[5-(4-{2-[(2-hydroxy-ethyl) -methyl-amino]-5-morpholin-4-ylmethyl-thiazol-4-yl}-phenoxy)-pentyloxy]-benzamidine] | 33 ± 5.1^ab % | 18 ± 4.5^ac % | 49 ± 3.3% | 
CCN(C)c1nc(-c2ccc(OCCCCCOc3ccc(C(=N)NO)cc3)cc2)c(CN2CCOCC2)s1 [Compound 311, N-hydroxy-4-(5-{4-[2-(ethyl-methyl-amino)-5-morpholin-4-ylmethyl-thiazol-4-yl]-phenoxy}-pentyloxy)-benzamidine] | 21 ± 4.2^b % | 12 ± 5.8^ac % | 46 ± 10.7% | 
CN(CCN1CCOCC1)c1nc(-c2ccc(OCCCCCOc3ccc(C(=N)NO)cc3)cc2)c(CN2CCOCC2)s1 [Compound 313, N-hydroxy-4-[5-(4-{2-[methyl-(2-morpholin-4-yl-ethyl)-amino]-5-morpholin-4-ylmethyl-thiazol-4-yl}-phenoxy)-pentyloxy]-benzamidine] | 23 ± 5.9^ab % | 13 ± 3.3^ac % | 53 ± 6% | 
